Tests used:
AMBEL (Ragweed, Common) [1] = assay: Preemergence herbicidal evaluation; type: in vivo, Ambrosia artemisifolia; settings: rated 4-5 weeks after treatment
In short: (§1)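 In this greenhouse assay, monocot and dicot seeds are planted in soil and treated prior to emergence with an aqueous acetone spray (about 0.0156-0.500 kg/ha). Plants are assessed visually against control on a 0-9 scale after 4-5 weeks.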

ECHCG (Barnyardgrass) = assay: Preemergence herbicidal evaluation; type: in vivo, Echinochloa crus-galli; settings: rated 4-5 weeks after treatment
In short: as §1

[2] = test system: GLXMAW (Soybean, Williams); assay: Postemergence herbicidal evaluation; type: in vivo, Glycine max, (L.) Merr. cv Williams; settings: postemergence
In short: (§2)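 First, seedlings were raised for around two weeks. Next, test material in 50/50 acetone/water containing 0.5% TWEEN 20 was sprayed through a nozzle at 40 psi, equivalent to about 0.0156–0.500 kg/ha. Finally, after 4–5 weeks in the greenhouse, plants were rated 0–9.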

CYPSE (Flatsedge) = assay: Preemergence weed control under flooded paddy conditions; type: in vivo, Cyperus serotinus; settings: rated 3-4 weeks after treatment
In short: (§3)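 Ratings on a 0-9 visual scale cover stand, vigor, malformation, size, chlorosis and overall appearance relative to a control, taken three to four weeks post-treatment. Application was into flood water over freshly sown silt loam at roughly 0.0313 to 0.500 kg/ha.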

[3] = test system: GLXMAW (Soybean, Williams); assay: Preemergence herbicidal evaluation; type: in vivo, Glycine max, (L.) Merr. cv Williams; settings: rated 4-5 weeks after treatment
In short: as §1

ZEAMX (Corn, Field) = assay: Postemergence herbicidal evaluation; type: in vivo, Zea mays; settings: postemergence
In short: as §2

GALAP (Galium) = assay: Preemergence herbicidal evaluation; type: in vivo, Galium aparine; settings: rated 4-5 weeks after treatment
In short: as §1

CASOB (Sicklepod) = assay: Preemergence herbicidal evaluation; type: in vivo, Cassia obtusifolia; settings: rated 4-5 weeks after treatment
In short: as §1

ABUTH (Velvetleaf) = assay: Preemergence herbicidal evaluation; type: in vivo, Abutilon theophrasti; settings: rated 4-5 weeks after treatment
In short: as §1

SETVI (Foxtail, Green) = assay: Preemergence herbicidal evaluation; type: in vivo, Setaria viridis; settings: rated 4-5 weeks after treatment
In short: as §1

[4] = test system: IPOHE (Morningglory, Ivyleaf); assay: Postemergence herbicidal evaluation; type: in vivo, Ipomoea hederacea; settings: postemergence
In short: as §2

AMBEL (Ragweed, Common) [5] = assay: Postemergence herbicidal evaluation; type: in vivo, Ambrosia artemisifolia; settings: postemergence
In short: as §2

[6] = test system: SAGPY (Arrowhead (Pygmaea)); assay: Preemergence weed control under flooded paddy conditions; type: in vivo, Sagittaria pygmaea; settings: rated 3-4 weeks after treatment
In short: as §3

C#CC(C)N1C(=O)CSC1=Nc1cc(-n2c(=O)cc(C(F)(F)F)n(C)c2=O)c(F)cc1Cl (centres unmarked) [Compound 165, 3-{4-Chloro-2-fluoro-5-{[3-(1-methyl-2-propynyl)-4-oxo-2-thiazolidinylidene]amino}phenyl}-1-methyl-6-(trifluoromethyl)-2,4(1H,3H)-pyrimidinedione]
Preemergence herbicidal rating AMBEL (AMBEL (Ragweed, Common) [1]; 0.0156 kg/ha): 0.0 | Preemergence herbicidal rating AMBEL (AMBEL (Ragweed, Common) [1]; 0.0313 kg/ha): 1.0 | Preemergence herbicidal rating AMBEL (AMBEL (Ragweed, Common) [1]; 0.0625 kg/ha): 0.0 | Preemergence herbicidal rating AMBEL (AMBEL (Ragweed, Common) [1]; 0.1250 kg/ha): 7.0 | Preemergence herbicidal rating AMBEL (AMBEL (Ragweed, Common) [1]; 0.2500 kg/ha): 7.0 | Preemergence herbicidal rating AMBEL (AMBEL (Ragweed, Common) [1]; 0.5000 kg/ha): 9.0 | Preemergence herbicidal rating ECHCG (ECHCG (Barnyardgrass); 0.0156 kg/ha): 0.0 | Preemergence herbicidal rating ECHCG (ECHCG (Barnyardgrass); 0.0313 kg/ha): 0.0 | Preemergence herbicidal rating ECHCG (ECHCG (Barnyardgrass); 0.0625 kg/ha): 0.0 | Preemergence herbicidal rating ECHCG (ECHCG (Barnyardgrass); 0.1250 kg/ha): 3.0 | Preemergence herbicidal rating ECHCG (ECHCG (Barnyardgrass); 0.2500 kg/ha): 6.0 | Preemergence herbicidal rating ECHCG (ECHCG (Barnyardgrass); 0.5000 kg/ha): 7.0 | herbicidal rating GLXMAW ([2]; rate 0.0156 kg/ha): 5.0 | herbicidal rating GLXMAW ([2]; rate 0.0313 kg/ha): 5.0 | herbicidal rating GLXMAW ([2]; rate 0.0625 kg/ha): 6.5 | herbicidal rating GLXMAW ([2]; rate 0.1250 kg/ha): 7.0 | herbicidal effect rating, CYPSE (CYPSE (Flatsedge); 0.0313 kg/ha): 0.0 | herbicidal effect rating, CYPSE (CYPSE (Flatsedge); 0.1250 kg/ha): 0.0 | herbicidal effect rating, CYPSE (CYPSE (Flatsedge); 0.2500 kg/ha): 3.0 | Preemergence herbicidal rating GLXMAW ([3]; 0.0156 kg/ha): 0.0 | Preemergence herbicidal rating GLXMAW ([3]; 0.0313 kg/ha): 0.0 | Preemergence herbicidal rating GLXMAW ([3]; 0.0625 kg/ha): 4.0 | Preemergence herbicidal rating GLXMAW ([3]; 0.1250 kg/ha): 4.0 | Preemergence herbicidal rating GLXMAW ([3]; 0.2500 kg/ha): 5.0 | Preemergence herbicidal rating GLXMAW ([3]; 0.5000 kg/ha): 6.0 | herbicidal rating ZEAMX (ZEAMX (Corn, Field); rate 0.0156 kg/ha): 4 | herbicidal rating ZEAMX (ZEAMX (Corn, Field); rate 0.0313 kg/ha): 5.0 | herbicidal rating ZEAMX (ZEAMX (Corn, Field); rate 0.0625 kg/ha): 5.0 | herbicidal rating ZEAMX (ZEAMX (Corn, Field); rate 0.1250 kg/ha): 5.5 | Preemergence herbicidal rating GALAP (GALAP (Galium); 0.0156 kg/ha): 0.0 | Preemergence herbicidal rating GALAP (GALAP (Galium); 0.0313 kg/ha): 0.0 | Preemergence herbicidal rating GALAP (GALAP (Galium); 0.0625 kg/ha): 0.0 | Preemergence herbicidal rating GALAP (GALAP (Galium); 0.1250 kg/ha): 4.0 | Preemergence herbicidal rating GALAP (GALAP (Galium); 0.2500 kg/ha): 7.0 | Preemergence herbicidal rating GALAP (GALAP (Galium); 0.5000 kg/ha): 8.0 | Preemergence herbicidal rating CASOB (CASOB (Sicklepod); 0.0313 kg/ha): 0.0 | Preemergence herbicidal rating CASOB (CASOB (Sicklepod); 0.0625 kg/ha): 0.0 | Preemergence herbicidal rating CASOB (CASOB (Sicklepod); 0.1250 kg/ha): 1.0 | Preemergence herbicidal rating CASOB (CASOB (Sicklepod); 0.2500 kg/ha): 7.0 | Preemergence herbicidal rating CASOB (CASOB (Sicklepod); 0.5000 kg/ha): 7.0 | Preemergence herbicidal rating ABUTH (ABUTH (Velvetleaf); 0.0156 kg/ha): 0.0 | Preemergence herbicidal rating ABUTH (ABUTH (Velvetleaf); 0.0313 kg/ha): 0.0 | Preemergence herbicidal rating ABUTH (ABUTH (Velvetleaf); 0.0625 kg/ha): 0.0 | Preemergence herbicidal rating ABUTH (ABUTH (Velvetleaf); 0.1250 kg/ha): 9.0 | Preemergence herbicidal rating ABUTH (ABUTH (Velvetleaf); 0.2500 kg/ha): 9.0 | Preemergence herbicidal rating ABUTH (ABUTH (Velvetleaf); 0.5000 kg/ha): 9.0 | Preemergence herbicidal rating SETVI (SETVI (Foxtail, Green); 0.0156 kg/ha): 0.0 | Preemergence herbicidal rating SETVI (SETVI (Foxtail, Green); 0.0313 kg/ha): 6.0 | Preemergence herbicidal rating SETVI (SETVI (Foxtail, Green); 0.0625 kg/ha): 6.0 | Preemergence herbicidal rating SETVI (SETVI (Foxtail, Green); 0.1250 kg/ha): 9.0 | Preemergence herbicidal rating SETVI (SETVI (Foxtail, Green); 0.2500 kg/ha): 9.0 | Preemergence herbicidal rating SETVI (SETVI (Foxtail, Green); 0.5000 kg/ha): 9.0 | herbicidal rating IPOHE ([4]; rate 0.0156 kg/ha): 9.0 | herbicidal rating IPOHE ([4]; rate 0.0313 kg/ha): 9.0 | herbicidal rating IPOHE ([4]; rate 0.0625 kg/ha): 9.0 | herbicidal rating IPOHE ([4]; rate 0.1250 kg/ha): 9.0 | herbicidal rating AMBEL (AMBEL (Ragweed, Common) [5]; rate 0.0156 kg/ha): 2.0 | herbicidal rating AMBEL (AMBEL (Ragweed, Common) [5]; rate 0.0313 kg/ha): 6.0 | herbicidal rating AMBEL (AMBEL (Ragweed, Common) [5]; rate 0.0625 kg/ha): 7.0 | herbicidal rating AMBEL (AMBEL (Ragweed, Common) [5]; rate 0.1250 kg/ha): 9.0 | herbicidal effect rating, SAGPY ([6]; 0.0313 kg/ha): 4.0 | herbicidal effect rating, SAGPY ([6]; 0.0625 kg/ha): 5.0 | herbicidal effect rating, SAGPY ([6]; 0.1250 kg/ha): 4.0 | herbicidal effect rating, SAGPY ([6]; 0.2500 kg/ha): 7.0

CN1C(=O)C(CC(=O)NO)SC1=Nc1cc(-n2c(=O)cc(C(F)(F)F)n(C)c2=O)c(F)cc1Cl (centres unmarked) [Compound 162, 2-{{2-Chloro-5-[3,6-dihydro-3-methyl-2,6-dioxo-4-(trifluoromethyl)-1(2H)-pyrimidinyl]-4-fluorophenyl}imino}-3-methyl-4-oxo-5-thiazolidineacetohydroxamic acid]
Preemergence herbicidal rating AMBEL (AMBEL (Ragweed, Common) [1]; 0.0156 kg/ha): 0.0 | Preemergence herbicidal rating AMBEL (AMBEL (Ragweed, Common) [1]; 0.0313 kg/ha): 3.0 | Preemergence herbicidal rating AMBEL (AMBEL (Ragweed, Common) [1]; 0.0625 kg/ha): 5.0 | Preemergence herbicidal rating AMBEL (AMBEL (Ragweed, Common) [1]; 0.1250 kg/ha): 9.0 | Preemergence herbicidal rating AMBEL (AMBEL (Ragweed, Common) [1]; 0.2500 kg/ha): 9.0 | Preemergence herbicidal rating ECHCG (ECHCG (Barnyardgrass); 0.0156 kg/ha): 1.0 | Preemergence herbicidal rating ECHCG (ECHCG (Barnyardgrass); 0.0313 kg/ha): 4.0 | Preemergence herbicidal rating ECHCG (ECHCG (Barnyardgrass); 0.0625 kg/ha): 8.0 | Preemergence herbicidal rating ECHCG (ECHCG (Barnyardgrass); 0.1250 kg/ha): 9.0 | Preemergence herbicidal rating ECHCG (ECHCG (Barnyardgrass); 0.2500 kg/ha): 9.0 | herbicidal rating GLXMAW ([2]; rate 0.0156 kg/ha): 6.0 | herbicidal rating GLXMAW ([2]; rate 0.0313 kg/ha): 6.5 | herbicidal rating GLXMAW ([2]; rate 0.0625 kg/ha): 8.5 | herbicidal effect rating, CYPSE (CYPSE (Flatsedge); 0.1250 kg/ha): 9.0 | herbicidal effect rating, CYPSE (CYPSE (Flatsedge); 0.2500 kg/ha): 9.0 | Preemergence herbicidal rating GLXMAW ([3]; 0.0156 kg/ha): 2.0 | Preemergence herbicidal rating GLXMAW ([3]; 0.0313 kg/ha): 2.0 | Preemergence herbicidal rating GLXMAW ([3]; 0.0625 kg/ha): 2.0 | Preemergence herbicidal rating GLXMAW ([3]; 0.1250 kg/ha): 5.0 | Preemergence herbicidal rating GLXMAW ([3]; 0.2500 kg/ha): 9.0 | herbicidal rating ZEAMX (ZEAMX (Corn, Field); rate 0.0156 kg/ha): 4.5 | herbicidal rating ZEAMX (ZEAMX (Corn, Field); rate 0.0313 kg/ha): 5.0 | herbicidal rating ZEAMX (ZEAMX (Corn, Field); rate 0.0625 kg/ha): 5.5 | Preemergence herbicidal rating GALAP (GALAP (Galium); 0.0156 kg/ha): 0.0 | Preemergence herbicidal rating GALAP (GALAP (Galium); 0.0313 kg/ha): 0.0 | Preemergence herbicidal rating GALAP (GALAP (Galium); 0.0625 kg/ha): 0.0 | Preemergence herbicidal rating GALAP (GALAP (Galium); 0.1250 kg/ha): 3.0 | Preemergence herbicidal rating GALAP (GALAP (Galium); 0.2500 kg/ha): 3.0 | Preemergence herbicidal rating CASOB (CASOB (Sicklepod); 0.0156 kg/ha): 0.0 | Preemergence herbicidal rating CASOB (CASOB (Sicklepod); 0.0625 kg/ha): 0.0 | Preemergence herbicidal rating CASOB (CASOB (Sicklepod); 0.1250 kg/ha): 0.0 | Preemergence herbicidal rating CASOB (CASOB (Sicklepod); 0.2500 kg/ha): 4.0 | Preemergence herbicidal rating ABUTH (ABUTH (Velvetleaf); 0.0156 kg/ha): 9.0 | Preemergence herbicidal rating ABUTH (ABUTH (Velvetleaf); 0.0313 kg/ha): 9.0 | Preemergence herbicidal rating ABUTH (ABUTH (Velvetleaf); 0.0625 kg/ha): 9.0 | Preemergence herbicidal rating ABUTH (ABUTH (Velvetleaf); 0.1250 kg/ha): 9.0 | Preemergence herbicidal rating ABUTH (ABUTH (Velvetleaf); 0.2500 kg/ha): 9.0 | Preemergence herbicidal rating SETVI (SETVI (Foxtail, Green); 0.0156 kg/ha): 9.0 | Preemergence herbicidal rating SETVI (SETVI (Foxtail, Green); 0.0313 kg/ha): 9.0 | Preemergence herbicidal rating SETVI (SETVI (Foxtail, Green); 0.0625 kg/ha): 9.0 | Preemergence herbicidal rating SETVI (SETVI (Foxtail, Green); 0.1250 kg/ha): 9.0 | Preemergence herbicidal rating SETVI (SETVI (Foxtail, Green); 0.2500 kg/ha): 9.0 | herbicidal rating IPOHE ([4]; rate 0.0156 kg/ha): 9.0 | herbicidal rating IPOHE ([4]; rate 0.0313 kg/ha): 9.0 | herbicidal rating IPOHE ([4]; rate 0.0625 kg/ha): 9.0 | herbicidal rating AMBEL (AMBEL (Ragweed, Common) [5]; rate 0.0156 kg/ha): 9.0 | herbicidal rating AMBEL (AMBEL (Ragweed, Common) [5]; rate 0.0313 kg/ha): 9.0 | herbicidal rating AMBEL (AMBEL (Ragweed, Common) [5]; rate 0.0625 kg/ha): 9.0 | herbicidal effect rating, SAGPY ([6]; 0.0313 kg/ha): 0.0 | herbicidal effect rating, SAGPY ([6]; 0.0625 kg/ha): 3.0 | herbicidal effect rating, SAGPY ([6]; 0.1250 kg/ha): 3.0 | herbicidal effect rating, SAGPY ([6]; 0.2500 kg/ha): 3.0

Reference: patent US20020137929A1, “1 - (3-heterocyclylphenyl) isothiourea, -isourea, -guanidine and -amidine herbicidal agents” (Intellectual Property Department, BASF Aktiengesellschaft, priority 1998, published 2002)
